Laboratory results reported in patent US20170106058A1, “PHARMACEUTICAL COMPOSITION AGAINST CHRONIC BACTERIAL INFECTIONS” (Lysando AG, priority 2014, published 2017).

Legend:
[1] = tested on: P. aeruginosa PA14 persisters; test: Persister killing assay, isolated persister fraction of P. aeruginosa PA14; assay type: cell-based
Procedure: (§1) Persister killing—Planktonic persister cells were isolated from a stationary phase culture as described e.g. in Chen et al., 2011(Chen X, Zhang M, Zhou C, Kallenbach N R, Ren D. 2011. Control of bacterial persister cells by Trp/Arg-containing antimicrobial peptides. Appl Environ Microbiol 77:4878-4885.). Briefly, an overnight culture of P. aeruginosa PA14 and PA1255 (a cystic fibrosis isolate) was inoculated each in 50 ml 1:20 Trypticase Soy Broth (TSB). After 48 h of growth at 37° C., the culture was treated with ofloxacin at a final concentration of 10 μg/ml (5× MIC) for 5 hours at 37° C., while shaking at 200 rpm. The persister cells surviving this antibiotic treatment were isolated by centrifugation (5250 g, 15 min, 4° C.) and the cell pellet was washed twice with 20 mM HEPES buffer. Prior to treatment, cells were resuspended in the same volume of 20 mM HEPES buffer. A persister killing assay was performed as described e.g. by De Groote et al., 2009 (De Groote V N, Verstraeten N, Fauvart M, Kint C I, Verbeeck A M, Beullens S, Cornelis P, Michiels J. 2009. Novel persistence genes in Pseudomonas aeruginosa identified by high-throughput screening. FEMS Microbiol Lett 297:73-79). Briefly, a volume of 100 μl of the isolated persister fraction was mixed with polypeptides comprising peptidoglycan hydrolase or ciprofloxacin (final concentrations of 10× or 30× MIC against the respective strains), in the absence or presence of 0.5 mM EDTA-Na2 (final concentration) up to a final volume of 200 μl. Control treatments with 20 mM HEPES buffer, 0.5 mM EDTA or ofloxacin (30×and 10× MIC) were performed in parallel. The mixtures were shaken (200 rpm) for lh at 37° C. Treated persisters where washed twice with 20 mM HEPES buffer and appropriate dilutions were plated on TSB agar plates and incubated at 37° C. The number of persisters was determined after 72 h incubation to allow complete resuscitation of all surviving persisters. Each experiment was independently repeated at least 3 times.
(§2) Planktonic persister cells were isolated from a stationary-phase culture as described previously (Liebens V, Defraine V, Van der Leyden A, De Groote V N, Fierro C, Beullens S, Verstraeten N, Kint C, Jans A, Frangipani E, Visa P, Marchal K, Versées W, Fauvart M, Michiels J. 2014. A putative de-N-acetylase of the PIG-L superfamily affects fluoroquinolone tolerance in Pseudomonas aeruginosa. Pathogen. Dis. 71:39-54.) with minor modifications. An overnight culture of P. aeruginosa PA14, PAl255 (a cystic fibrosis isolate), Escherichia coil UTI-89 (isolate from chronic urinary tract infection) and Acinetobacter baumannii RUH134 (reference strain for global clone 2) was diluted 100×in 50 ml 1:20 Trypticase soy broth (TSB). After overnight growth at 37° C., the cultures were treated with either 10 μg/ml ofloxacin (P. aeruginosa strains), 200 μg/ml tobramycin (A. baumannii) or 200 μg/ml amikacin (E. coli) for 5 h at 37° C., while shaking at 200 rpm. The antibiotic concentrations were chosen to allow only persister cells to survive, based on previous time-kill curves. The persister fractions were isolated by centrifugation (5,250× g for 15 min at 4° C.), and the cell pellet was washed twice with 20 mM HEPES (pH 7.4). Prior to treatment, the cells were resuspended in a ten-fold reduced volume of 20 mM HEPES (pH 7.4) to concentrate the persisters.
A persister killing assay was performed as described previously (Liebens et al., 2014), with minor modifications. […]

[2] = tested on: P. aeruginosa PAl255 persisters; test: Persister killing assay, isolated persister fraction of P. aeruginosa PAl255 (cystic fibrosis isolate); assay type: cell-based
Procedure: as §1, with “Briefly, a volume of 100 μl of the isolated persister fraction was mixed with polypeptides comprising peptidoglycan hydrolase or ciprofloxacin (final concentrations of 10× or 30× MIC against the respective strains), in the absence or presence of 0.5 mM EDTA-Na2 (final concentration) up to a final volume of 200 μl. Control treatments with 20 mM HEPES buffer, 0.5 mM EDTA or ofloxacin (30×and 10× MIC) were performed in parallel. The mixtures were shaken (200 rpm) for lh at 37° C. Treated persisters where washed twice with 20 mM HEPES buffer and appropriate dilutions were plated on TSB agar plates and incubated at 37° C.” left out, “Each experiment was independently repeated at least 3 times.” left out

[3] = tested on: E. coli UTI-89 persisters; test: Persister killing assay, isolated persister fraction of E. coli UTI-89 (chronic urinary tract infection isolate); assay type: cell-based, Escherichia coli; settings: 10× MIC
Text: as §2
A persister killing assay was performed as described previously (Liebens et al., 2014), with minor modifications. A volume of 100 μl of the isolated persister fraction was mixed with either the polypeptide according to SEQ ID NO: 124, 125, 126 or ciprofloxacin (final concentrations of 10× or 30× MIC against the respective strains), in the absence or presence of 0.5 mM EDTA-Na2 (final concentration) up to a final volume of 200 μl. Control treatments with 20 mM HEPES (pH 7.4), 0.5 mM EDTA, or ofloxacin/tobramycin/amikacin (30× and 10× MIC) were performed in parallel. […] The number of persisters was determined after 72 h of incubation to allow for complete resuscitation of all surviving persisters.

[4] = 10× and 30× MIC, with and without 0.5 mM EDTA

In the case of `O=C([O-])CN(CCN(CC(=O)[O-])CC(=O)O)CC(=O)O.[Na+].[Na+]` [EDTA, reference compound], the “bactericidal activity against isolated persisters” value (“bactericidal activity” for short) ([1]; 0.5 mM EDTA alone) is reported as “did not affect the persisters” and the “bactericidal activity” value ([2]; 0.5 mM EDTA alone) is reported as “did not affect the persisters”.

With `O=C(O)c1cn(C2CC2)c2cc(N3CCNCC3)c(F)cc2c1=O` [ciprofloxacin, reference compound] the “bactericidal activity” value [1, 4] was “did not affect the persisters”, the “killing of persisters” value ([3]; with and without 0.5 mM EDTA) was “did not completely kill persisters” and the “bactericidal activity” value [2, 4] was “did not affect the persisters”.

B1: SEQ ID NO: 124: polypeptide comprising a fusion of Sarcotoxin IA (SEQ ID NO: 48) and KZ144 (SEQ ID NO: 11), active against vegetative cells of E. coli (protein)
chain: MKFFRKLKKSVKKRAKEFFKKPRVIGVSIPFGSKVLRKGDRGDEVCQLQTLLNLCGYDVGKPDGIFGNNTFNQVVKFQKDNCLDSDGIVGKNTWAELFSKYSPPIPYKTIPMPTANKSRAAATPVMNAVENATGVRSQLLLTFASIESAFDYEIKAKTSSATGWFQFLTGTWKTMIENYGMKYGVLTDPTGALRKDPRISALMGAELIKENMNILRPVLKREPTDTDLYLAHFFGPGAARRFLTTGQNELAATHFPKEAQANPSIFYNKDGSPKTIQEVYNLMDGKVAAHRKLEHHHHHH
modifications: SarcotoxinIA-KZ144his
With B1 the “effect on persisters” value ([1]; 30× MIC, with 0.5 mM EDTA) was “complete eradication”, the “reduction of the number of persisters” value ([1]; 30× MIC, with 0.5 mM EDTA) was “approximately 5 log units” and the “reduction of the number of persisters in comparison to the 0.5 mM EDTA control” value ([1]; 30× MIC, without EDTA) was “approximately 2.3 log units”. For the same molecule, the “killing of persisters” value ([3]; with 0.5 mM EDTA) was “completely eradicated” and the “killing of persisters” value ([3]; without 0.5 mM EDTA) was “did not completely kill persisters”.
